The values that follow are results of earlier work, collected in patent US7858117B2, “Amphoteric liposomes and their use” (Novosom AG, priority 2002, dated 2010).

Consider cholesterol hemisuccinate, for which the “pK value of the carboxyl group” value (state of the art) is recorded as “approximately 4.5”. lysozyme: the pI (protein) is recorded as 11.5.
